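In this assay, cells in 96-well plates receive the compound at five concentrations for 48 hours. Endpoints are linearly interpolated between the surrounding concentrations. At the GI50, growth is halved.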 Activity calls are given as the source filed them. Rule as the data show it: active = GI50 up to about 1.1 µM and inactive = higher. Where a SMILES comes first, the peptide text is derived from it. The star is where a group is joined. Boc = CC(C)(C)OC(=O)*
What was measured:
Experiment in all cases: inhibition of tumour cell growth, NCI panel, 48 h
CCRF-CEM = test system: CCRF-CEM
DMS-114 = test system: DMS-114
IGROV-1 = test system: IGROV-1
KM-20L2 = test system: KM-20L2
LXFL 529 = test system: LXFL 529
M14 = test system: M14
SF-295 = test system: SF-295
SR = test system: SR
DLD-1 = test system: DLD-1
DMS-273 = test system: DMS-273
HCT-15 = test system: HCT-15
HOP-18 = test system: HOP-18
LOX IMVI = test system: LOX IMVI
M19-MEL = test system: M19-MEL
MCF7 = test system: MCF7
NCI/ADR-RES = test system: NCI/ADR-RES
SNB-78 = test system: SNB-78
ACHN = test system: ACHN
BT-549 = test system: BT-549
T47D = test system: T47D

Structure (SMILES) | GI50 (CCRF-CEM) | GI50 (DMS-114) | GI50 (IGROV-1) | GI50 (KM-20L2) | GI50 (LXFL 529) | GI50 (M14) | GI50 (SF-295) | GI50 (SR) | GI50 (DLD-1) | GI50 (DMS-273) | GI50 (HCT-15) | GI50 (HOP-18) | GI50 (LOX IMVI) | GI50 (M19-MEL) | GI50 (MCF7) | GI50 (NCI/ADR-RES) | GI50 (SNB-78) | GI50 (ACHN) | GI50 (BT-549) | GI50 (T47D)
O=C(NN1C(=O)C(Cl)C1c1ccccc1O)c1ccccc1O (stereo unspecified) | 5.12 µM (inactive) | 6.82 µM (inactive) | 30.6 µM (inactive) | 4.51 µM (inactive) | 41.4 µM (inactive) | 18.3 µM (inactive) | 26.8 µM (inactive) | 17.8 µM (inactive) | – | – | – | – | – | – | – | – | – | – | – | –
Cc1nc2ccccc2c(=O)n1Nc1ccc(C(=O)O)cc1 | > 100 µM (inactive) | > 100 µM (inactive) | > 100 µM (inactive) | > 100 µM (inactive) | – | – | > 100 µM (inactive) | – | > 100 µM (inactive) | > 100 µM (inactive) | > 100 µM | > 100 µM (inactive) | > 100 µM (inactive) | > 100 µM (inactive) | > 100 µM (inactive) | > 100 µM (inactive) | > 100 µM (inactive) | – | – | –
Cc1ccc(N2C(=O)/C(=C3\SC(C(N)=O)=C(N)N3c3ccccc3)SC2=S)cc1 | > 100 µM (inactive) | – | > 100 µM (inactive) | – | > 100 µM (inactive) | – | 24.9 µM (inactive) | – | 90.8 µM (inactive) | – | – | 37.7 µM (inactive) | – | > 100 µM (inactive) | – | – | – | 66.1 µM (inactive) | – | –
c1ccc2c3c(ccc2c1)-c1[nH]ncc1CCO3 | 32 µM (inactive) | 32.7 µM (inactive) | > 52 µM (inactive) | 34.5 µM (inactive) | – | – | 28.4 µM (inactive) | – | 34.8 µM (inactive) | 40.5 µM (inactive) | 20.5 µM | 61.4 µM (inactive) | 33.1 µM (inactive) | 34 µM (inactive) | 32.9 µM (inactive) | 38.2 µM (inactive) | 29.2 µM (inactive) | – | – | –
C=C(C)[C@@H]1CC[C@@H]2C(=CC[C@]3(C)C([C@H](C)CC/C=C(/C)C(=O)O)CC[C@@]23C)[C@@]1(C)CCC(=O)O (stereo partly specified) | 21.9 µM (inactive) | – | 28.2 µM (inactive) | – | – | 29.5 µM (inactive) | 30.3 µM (inactive) | 21.3 µM (inactive) | – | – | 21.3 µM | – | 19.2 µM (inactive) | – | 39.6 µM (inactive) | – | – | 19 µM (inactive) | 21.6 µM (inactive) | 45.8 µM (inactive)
O=C(c1ccccc1)c1nc2ccc(Cl)cc2c2c1CCCO2 | – | > 100 µM (inactive) | > 100 µM (inactive) | > 100 µM (inactive) | > 100 µM (inactive) | > 100 µM (inactive) | 50 µM (inactive) | > 100 µM (inactive) | – | > 100 µM (inactive) | > 100 µM | > 100 µM (inactive) | > 100 µM (inactive) | > 100 µM (inactive) | – | – | > 100 µM (inactive) | > 100 µM (inactive) | – | –
CCOCNC(=O)N(COCC)COCC | > 100 µM (inactive) | > 100 µM (inactive) | > 100 µM (inactive) | > 100 µM (inactive) | > 100 µM (inactive) | > 100 µM (inactive) | > 100 µM (inactive) | – | > 100 µM (inactive) | – | > 100 µM | – | > 100 µM (inactive) | > 100 µM (inactive) | – | – | > 100 µM (inactive) | > 100 µM (inactive) | – | –
Cc1c2cnccc2c(C)c2c1c1ccccc1n2CC1CO1 (stereo unspecified) | 0.0389 µM (active) | 0.82 µM (active) | 1.48 µM (inactive) | 1.3 µM (inactive) | – | – | 1.33 µM (inactive) | – | 1.55 µM (inactive) | 0.638 µM (active) | 1.54 µM | 1.86 µM (inactive) | 0.393 µM (active) | 1.31 µM (inactive) | 0.0422 µM (active) | 0.826 µM (active) | 1.83 µM (inactive) | – | – | –
CN1NC(c2ccc(Cl)cc2)=C(C#N)C(=O)CC1c1ccccc1 (stereo unspecified) | – | > 100 µM (inactive) | – | > 100 µM (inactive) | > 100 µM (inactive) | – | > 100 µM (inactive) | > 100 µM (inactive) | > 100 µM (inactive) | > 100 µM (inactive) | > 100 µM | 29.9 µM (inactive) | > 100 µM (inactive) | – | – | – | – | > 100 µM (inactive) | – | –
O=C(Cc1nc2ccc(C(=O)c3ccccc3)cc2nc1O)C(=O)Nc1nc2ccccc2[nH]1 | 38.3 µM (inactive) | 23.8 µM (inactive) | 93.5 µM (inactive) | 63.5 µM (inactive) | 45.2 µM (inactive) | 82.6 µM (inactive) | 28.4 µM (inactive) | 11.7 µM (inactive) | – | 20.9 µM (inactive) | 75 µM | 77.1 µM (inactive) | 44 µM (inactive) | 56.1 µM (inactive) | – | – | – | 86.7 µM (inactive) | – | –
CC1C2CC(CC2O)C1(C)C (stereo unspecified) | > 100 µM (inactive) | – | > 100 µM (inactive) | – | – | > 100 µM (inactive) | > 100 µM (inactive) | > 100 µM (inactive) | – | – | – | – | – | – | – | – | – | > 100 µM (inactive) | > 100 µM (inactive) | > 100 µM (inactive)
CC(=O)NNc1nc(C)c(C(=O)NNC(=O)C(=O)Nc2ccccc2C#N)s1 | 65.9 µM (inactive) | > 100 µM (inactive) | > 100 µM (inactive) | > 100 µM (inactive) | > 100 µM (inactive) | > 100 µM (inactive) | > 100 µM (inactive) | 87.1 µM (inactive) | > 100 µM (inactive) | > 100 µM (inactive) | > 100 µM | > 100 µM (inactive) | > 100 µM (inactive) | > 100 µM (inactive) | – | – | > 100 µM (inactive) | > 100 µM (inactive) | – | –
COC(=O)c1cccc(N[C@@H]2c3cc4c(cc3C(c3cc(OC)c(O)c(OC)c3)[C@H]3C(=O)OCC32)OCO4)c1 (stereo partly specified) | 0.248 µM (active) | 0.568 µM (active) | 3.13 µM (inactive) | 2.75 µM (inactive) | – | – | 0.543 µM (active) | – | 1.89 µM (inactive) | 0.362 µM (active) | 1.08 µM | 2.62 µM (inactive) | 0.859 µM (active) | 1.28 µM (inactive) | 0.442 µM (active) | 0.468 µM (active) | 3.67 µM (inactive) | – | – | –
COc1cc(O)c2c(=O)cc(C3(O)C=CC(=O)C=C3)oc2c1 | < 0.01 µM (active) | – | < 0.01 µM (active) | – | – | 0.542 µM (active) | 0.631 µM (active) | < 0.01 µM (active) | – | – | 0.0435 µM | – | 0.041 µM (active) | – | – | 0.0588 µM (active) | – | < 0.045 µM (active) | 0.363 µM (active) | 0.378 µM (active)
c1ccc(-c2nnc(-c3nsc4ccccc34)o2)cc1 | > 100 µM (inactive) | > 100 µM (inactive) | 60.4 µM (inactive) | > 100 µM (inactive) | > 100 µM (inactive) | > 100 µM (inactive) | – | – | – | > 100 µM (inactive) | > 100 µM | – | > 100 µM (inactive) | > 100 µM (inactive) | – | – | 98.9 µM (inactive) | – | – | –
COc1ccc(-c2cc(O)c3ccc(C)nc3n2)cc1 | > 100 µM (inactive) | – | 43.2 µM (inactive) | – | – | > 100 µM (inactive) | – | – | – | – | > 100 µM | – | > 100 µM (inactive) | – | > 100 µM (inactive) | > 100 µM (inactive) | – | > 100 µM (inactive) | > 100 µM (inactive) | 96.8 µM (inactive)
CC(C)(C)OC(=O)NC(Cc1ccccc1)C(=O)N1CCCC1C(N)=O (stereo not drawn) (Boc-Phe-Pro-NH2; configuration not given here) | > 100 µM (inactive) | – | > 100 µM (inactive) | – | – | > 100 µM (inactive) | > 100 µM (inactive) | > 100 µM (inactive) | – | – | > 100 µM | – | > 100 µM (inactive) | – | > 100 µM (inactive) | – | – | > 100 µM (inactive) | – | > 100 µM (inactive)

— ChEMBL document CHEMBL1201862, “PubChem BioAssay data set” (2004)
